Assay results: article PMC11097168, “Laburnicotides A–F: Acyclic N-Acetyl Oligopeptides from the Nematode-Cyst-Associated Fungus Laburnicola nematophila” (ACS Omega, 2024)
Converted amounts (≈) assume the structure as drawn. Where two headings read alike, the source gives them in different places.

Columns and labels:
[1] = system: Acinetobacter baumanii; assay: Antimicrobial activity (MIC), serial dilution; type: cell-based
Protocol: (§1) The evaluation of antimicrobial efficacy was conducted through a serial dilution method to determine the minimum inhibitory concentrations (MICs) of isolated compounds against various Gram-positive bacteria (Bacillus subtilis (B. subtilis), Mycobacterium smegmatis (M. smegmatis), and Staphylococcus aureus), Gram-negative bacteria (Acinetobacter baumannii (A. baumannii), Chromobacterium violaceum, Escherichia coli, and Pseudomonas aeruginosa (P. aeruginosa)), and five fungal species (Candida albicans, Mucor hiemalis, Rhodotorula glutinis, Schizosaccharomyces pombe, and Wickerhamomyces anomalus), utilizing established methodologies.[16],[20],[23],[24] Methanol served as the negative control with a volume of 20 μL, while the choice of positive controls was tailored to the specific organism under investigation. For bacterial strains, oxytetracycline, ciprofloxacin, kanamycin, and gentamicin were employed as references for B. subtilis, A. baumannii, M. smegmatis, and P. aeruginosa, respectively; nystatin was the standard for all fungi. The cytotoxicity of compounds was assessed on L929 mouse fibroblast cells and KB3.1 human endocervical adenocarcinoma cells using an MTT assay. Epothilone B acted as the positive control in these experiments. Additionally, the nematicidal potential was evaluated using Caenorhabditis elegans in a 48-well flat-bottom plate, with compounds tested at concentrations of 100, 50, and 10 μg mL^–1. Samples were dissolved in methanol and added to the wells and then dried using a nitrogen stream. Subsequently, 300 μL of a suspension containing 1,000 nematodes/mL was added to the samples and incubated for 18 h at 23 °C and 150 rpm. Ivermectin, at a concentration of 1 μg mL^–1, served as the positive control, and methanol was used as the negative control. This assay was executed according to the procedures outlined by Phutthacharoen et al.[23]

[2] = system: Pseudomonas aeruginosa; assay: Antimicrobial activity (MIC), serial dilution; type: cell-based
Protocol: as §1, with “The biological activity of isolated compounds (1, 2, 4, and 5) was assessed against different fungi, bacteria, cell lines, Caenorhabditis elegans, and Chikungunya virus. The evaluation” for “The evaluation”

[3] = system: Escherichia coli; assay: Antimicrobial activity (MIC), serial dilution; type: cell-based
Protocol: as §1, with “The biological activity of isolated compounds (1, 2, 4, and 5) was assessed against different fungi, bacteria, cell lines, Caenorhabditis elegans, and Chikungunya virus. The evaluation” for “The evaluation”

[4] = system: Chromobacterium violaceum; assay: Antimicrobial activity (MIC), serial dilution; type: cell-based
Protocol: as §1, with “The biological activity of isolated compounds (1, 2, 4, and 5) was assessed against different fungi, bacteria, cell lines, Caenorhabditis elegans, and Chikungunya virus. The evaluation” for “The evaluation”

[5] = system: Staphylococcus aureus; assay: Antimicrobial activity (MIC), serial dilution; type: cell-based
Protocol: as §1, with “The biological activity of isolated compounds (1, 2, 4, and 5) was assessed against different fungi, bacteria, cell lines, Caenorhabditis elegans, and Chikungunya virus. The evaluation” for “The evaluation”

[6] = system: Bacillus subtilis; assay: Antimicrobial activity (MIC), serial dilution; type: cell-based
Protocol: as §1

[7] = system: Schizosaccharomyces pombe; assay: Antimicrobial activity (MIC), serial dilution; type: cell-based
Protocol: as §1, with “The biological activity of isolated compounds (1, 2, 4, and 5) was assessed against different fungi, bacteria, cell lines, Caenorhabditis elegans, and Chikungunya virus. The evaluation” for “The evaluation”

[8] = system: Pichia anomala; assay: Antimicrobial activity (MIC), serial dilution; type: cell-based
Protocol: as §1, with “The biological activity of isolated compounds (1, 2, 4, and 5) was assessed against different fungi, bacteria, cell lines, Caenorhabditis elegans, and Chikungunya virus. The evaluation” for “The evaluation”

[9] = system: Mucor hiemails; assay: Antimicrobial activity (MIC), serial dilution; type: cell-based
Protocol: as §1, with “The biological activity of isolated compounds (1, 2, 4, and 5) was assessed against different fungi, bacteria, cell lines, Caenorhabditis elegans, and Chikungunya virus. The evaluation” for “The evaluation”

[10] = system: Candida albicans; assay: Antimicrobial activity (MIC), serial dilution; type: cell-based
Protocol: as §1, with “The biological activity of isolated compounds (1, 2, 4, and 5) was assessed against different fungi, bacteria, cell lines, Caenorhabditis elegans, and Chikungunya virus. The evaluation” for “The evaluation”

[11] = system: Mycobacterium smegmatis; assay: Antimicrobial activity (MIC), serial dilution; type: cell-based
Protocol: as §1, with “The biological activity of isolated compounds (1, 2, 4, and 5) was assessed against different fungi, bacteria, cell lines, Caenorhabditis elegans, and Chikungunya virus. The evaluation” for “The evaluation”

[12] = system: Rhodotorula glutinis; assay: Antimicrobial activity (MIC), serial dilution; type: cell-based
Protocol: as §1, with “The biological activity of isolated compounds (1, 2, 4, and 5) was assessed against different fungi, bacteria, cell lines, Caenorhabditis elegans, and Chikungunya virus. The evaluation” for “The evaluation”

[13] = system: L929 mouse fibroblast cells; assay: Cytotoxicity, MTT assay; type: cell-based; design: key: -: No effect on cell lines
Protocol: as §1

[14] = system: KB3.1 human endocervical adenocarcinoma cells; assay: Cytotoxicity, MTT assay; type: cell-based; design: key: -: No effect on cell lines; settings: Human endocervical adenocarcinoma (KB3.1)
Protocol: as §1

[15] = system: Caenorhabditis elegans; assay: Nematicidal activity; type: in vivo; settings: 23 °C, 150 rpm
Protocol: as §1

[16] = read-out: MIC, positive control
[17] = C. elegans N2, 10 µg mL-1, 18 h, < 0: less active than the corresponding negative control
[18] = C. elegans N2, 50 µg mL-1, 18 h, < 0: less active than the corresponding negative control
[19] = C. elegans N2, 100 µg mL-1, 18 h, < 0: less active than the corresponding negative control

Row | Compound | MIC [2] | MIC [3] | MIC [7] | MIC [8] | MIC [9] | MIC [4] | MIC [10] | MIC [11] | MIC [5] | MIC [12] | Cytotoxicity IC50 [13] | Cytotoxicity IC50 [14] | Corrected Mortality (%) [15, 17] [%] | Corrected Mortality (%) [15, 18] [%] | Corrected Mortality (%) [15, 19] [%] | MIC [6] | MIC [1] | other results
1 | O=C(O)c1cn(C2CC2)c2cc(N3CCNCC3)c(F)cc2c1=O [Ciprofloxacin, reference compound] |  |  |  |  |  |  |  |  |  |  |  |  |  |  |  |  |  | MIC ([1]; Acinetobacter baumannii, read-out: MIC, positive control): 0.52 µg/mL (≈ 1.57 µM)
2 | CNC(C)C1CCC(N)C(OC2C(N)CC(N)C(OC3OCC(C)(O)C(NC)C3O)C2O)O1 (stereo not drawn) [Gentamycin, reference compound] |  |  |  |  |  |  |  |  |  |  |  |  |  |  |  |  |  | MIC [2, 16]: 0.21 µg/mL (≈ 0.44 µM); MIC [3, 16]: 0.42 µg/mL (≈ 0.879 µM); MIC [4, 16]: 1.7 µg/mL (≈ 3.56 µM); MIC [5, 16]: 0.21 µg/mL (≈ 0.44 µM)
3 | CN(C)[C@@H]1C(O)=C(C(N)=O)C(=O)[C@@]2(O)C(O)=C3C(=O)c4c(O)cccc4[C@@](C)(O)[C@H]3[C@H](O)[C@@H]12 [Oxytetracycline, reference compound] |  |  |  |  |  |  |  |  |  |  |  |  |  |  |  |  |  | MIC [6, 16]: 16.6 µg/mL (≈ 36.1 µM)
4 | Ac-D-Trp-D-Ala^1-D-Ala^2-L-Phe [Compound 4] | - (No inhibition up to 67 µg/mL) | - (No inhibition up to 67 µg/mL) | - (No inhibition up to 67 µg/mL) | - (No inhibition up to 67 µg/mL) | - (No inhibition up to 67 µg/mL) | - (No inhibition up to 67 µg/mL) | - (No inhibition up to 67 µg/mL) | - (No inhibition up to 67 µg/mL) | - (No inhibition up to 67 µg/mL) | - (No inhibition up to 67 µg/mL) | - | - | 0.7 ± 2.0 | 0.1 ± 2.2 | < 0 | - (No inhibition up to 67 µg/mL) | - (No inhibition up to 67 µg/mL) | 
5 | Ac-D-Trp-D-Leu-D-Ala [Compound 5] | - (No inhibition up to 67 µg/mL) | - (No inhibition up to 67 µg/mL) | - (No inhibition up to 67 µg/mL) | - (No inhibition up to 67 µg/mL) | - (No inhibition up to 67 µg/mL) | - (No inhibition up to 67 µg/mL) | - (No inhibition up to 67 µg/mL) | - (No inhibition up to 67 µg/mL) | - (No inhibition up to 67 µg/mL) | - (No inhibition up to 67 µg/mL) | - | - | < 0 | 0.5 ± 1.1 | < 0 | - (No inhibition up to 67 µg/mL) | - (No inhibition up to 67 µg/mL) | 
6 | Ac-D-Trp-D-Leu-D-Ala-L-Phe [Compound 2] | - (No inhibition up to 67 µg/mL) | - (No inhibition up to 67 µg/mL) | - (No inhibition up to 67 µg/mL) | - (No inhibition up to 67 µg/mL) | - (No inhibition up to 67 µg/mL) | - (No inhibition up to 67 µg/mL) | - (No inhibition up to 67 µg/mL) | - (No inhibition up to 67 µg/mL) | - (No inhibition up to 67 µg/mL) | - (No inhibition up to 67 µg/mL) | - | - | < 0 | < 0 | < 0 | - (No inhibition up to 67 µg/mL) | - (No inhibition up to 67 µg/mL) | 
7 | Ac-D-Trp-D-Leu^1-D-Leu^2-L-Phe [Compound 1] | - (No inhibition up to 67 µg/mL) | - (No inhibition up to 67 µg/mL) | - (No inhibition up to 67 µg/mL) | - (No inhibition up to 67 µg/mL) | - (No inhibition up to 67 µg/mL) | - (No inhibition up to 67 µg/mL) | - (No inhibition up to 67 µg/mL) | - (No inhibition up to 67 µg/mL) | - (No inhibition up to 67 µg/mL) | - (No inhibition up to 67 µg/mL) | - | - | < 0 | < 0 | < 0 | - (No inhibition up to 67 µg/mL) | - (No inhibition up to 67 µg/mL) | 
8 | Ivermectin [reference compound] |  |  |  |  |  |  |  |  |  |  |  |  |  |  |  |  |  | Corrected Mortality (%) ([15]; C. elegans N2, 1 µg mL-1, 18 h): 96.2 ± 2.7%
